According to patent US20240182453A1, “NOVEL SUBSTITUTED PYRAZINE-CARBOXAMIDE DERIVATIVES” (Boehringer Ingelheim International GmbH, priority 2022, published 2024):

biological target: human metabotropic Glutamate 4 receptor (mGluR4) (Homo sapiens (Human), UniProt Q14833); test: Assay A: in vitro testing of mGluR4 potency (glutamate-induced cAMP lowering, HTRF cAMP); format: cell-based; conditions: HEK293 cells overexpressing human mGluR4; 10 uM L-glutamic acid, 1 uM forskolin; compounds of the present invention
Description: A. In Vitro Testing of mGluR4 Potency
The in vitro activity of the compounds according to the invention may be investigated as follows:
The HEK293 cell overexpressing the human metabotropic Glutamate 4 receptor are thawed at 37° C. and immediately diluted with cell culture medium. After centrifugation, the cell pellet is re-suspended in medium and then distributed from a stirred spinner flask into the wells of the assay plate. The plates are incubated for one hour at room temperature before they are incubated for 24 hours at 37° C./5% CO2. After washing the cells in the plate three times with 80 uL HBSS/HEPES buffer (10 uL buffer remained in the wells after washing), 5 uL per well of compounds diluted in HBSS/HEPES buffer containing 0.2% BSA (final concentration: 0.1%) and 1 mM IBMX (final concentration: 0.5 mM) are added to the wells of the assay plate. Thereafter 5 uL per well of L-Glutamic acid (final concentration: 10 uM), forskolin (final concentration: 1 uM) and 1 mM IBMX (final concentration: 0.5 mM) dissolved in HBSS/HEPES buffer containing 0.2% BSA (final concentration: 0.1%) are added to the assay plate (final DMSO concentration: 1%). Several wells of the assay plate are used either for the positive and the negative controls or for the cAMP standard curve. The assay plate is incubated for 30 minutes at room temperature. Then 5 ul per well of Anti-cAMP-Antibody-d2 solution and 5 ul per well of cAMP-Europium Cryptate dilution are added to all wells of the plate and the plate is incubated another 60 minutes light protected at room temperature. The emission at 615 nm and 665 nm (Excitation wavelength: 320 nm) are measured on the EnVision™ reader (Perkin Elmer). The ratio between the emission at 665 nm and 615 is calculated by the reader. The whole assay is performed in the dark or under green light.
The cAMP standard is prepared by diluting the cAMP stock solution with HBSS/Hepes buffer: 5 μl/well of the cAMP dilutions (in HBSS/Hepes buffer containing 1 mM IBMX and 0.2% BSA—final concentration: 0.5 mM IBMX and 0.1% BSA) are added to 10 ul/well HBSS/Hepes buffer plus 5 ul/well 4% DMSO in HBSS/Hepes containing 0.2% BSA (final DMSO concentration: 1%—like in the wells containing compounds) in the wells of the assay plate. The final cAMP concentrations in the assay plate are: 0, 0.17, 0.69, 2.78, 11.1, 44.5, 178, and 712 nM (two wells/cAMP concentration).
Each assay microtiter plate contained also wells with vehicle controls instead of compound as controls for L-Glutamic acid induced signal (negative control; 100% CTL; 10 uM L-Glutamic acid+1 uM forskolin+0.5 mM IBMX+1% DMSO) and wells with vehicle controls without L-Glutamic acid as controls for non-specific changes in signal (positive control; 0% CTL; 0 uM L-Glutamic acid+1 uM forskolin+0.5 mM IBMX+1% DMSO).
The analysis of the data is performed by the calculation the ratio between the emission at 665 nm and the emission at 615 nm (Em665/Em615 ratio). Thereafter the signals of the compounds are normalized using the positive and negative controls by the following formula:
PoC=100×((Signal Sample−Positive Control)/(Negative Control−Positive Control))

human metabotropic Glutamate 4 receptor (mGluR4), sequence (Q14833 33-912): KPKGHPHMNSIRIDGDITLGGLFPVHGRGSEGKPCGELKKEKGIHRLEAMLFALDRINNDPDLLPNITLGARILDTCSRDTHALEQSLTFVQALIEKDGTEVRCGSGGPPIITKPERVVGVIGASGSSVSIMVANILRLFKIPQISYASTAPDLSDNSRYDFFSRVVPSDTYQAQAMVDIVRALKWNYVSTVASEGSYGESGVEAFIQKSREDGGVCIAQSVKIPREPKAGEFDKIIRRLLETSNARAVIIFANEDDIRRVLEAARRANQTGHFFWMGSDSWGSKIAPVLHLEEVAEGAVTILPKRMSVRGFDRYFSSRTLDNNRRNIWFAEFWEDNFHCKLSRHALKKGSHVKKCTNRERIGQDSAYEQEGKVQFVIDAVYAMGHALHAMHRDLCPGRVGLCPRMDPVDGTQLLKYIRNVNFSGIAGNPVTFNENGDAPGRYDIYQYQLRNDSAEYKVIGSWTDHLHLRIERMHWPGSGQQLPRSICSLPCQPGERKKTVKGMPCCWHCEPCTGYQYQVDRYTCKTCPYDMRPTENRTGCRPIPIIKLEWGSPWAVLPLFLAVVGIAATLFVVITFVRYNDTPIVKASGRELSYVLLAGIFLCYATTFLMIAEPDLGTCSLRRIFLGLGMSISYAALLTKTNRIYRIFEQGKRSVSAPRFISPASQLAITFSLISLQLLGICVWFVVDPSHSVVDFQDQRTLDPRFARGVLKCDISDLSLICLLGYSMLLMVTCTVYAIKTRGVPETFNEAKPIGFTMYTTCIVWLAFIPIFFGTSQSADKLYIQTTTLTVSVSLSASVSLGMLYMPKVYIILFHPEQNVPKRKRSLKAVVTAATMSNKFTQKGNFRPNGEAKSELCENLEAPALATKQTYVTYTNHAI

| Compound | IC50 |
| --- | --- |
| COCCn1c([C@@H](NC(=O)c2cnc(C)cn2)[C@@H](C)OC(F)F)nc2cc(F)c(F)cc21 [Example 28, N-[(1R,2R)-1-[5,6-difluoro-1-(2-methoxyethyl)-1H-1,3-benzodiazol-2-yl]-2-(difluoromethoxy)propyl]-5-methylpyrazine-2-carboxamide] | 10 nM |
| CO[C@H](C)[C@H](NC(=O)c1cnc(C)cn1)c1nc2cc(Cl)ccc2n1C [Example 29, N-[(1R,2R)-1-(5-chloro-1-methyl-1H-1,3-benzodiazol-2-yl)-2-methoxypropyl]-5-methylpyrazine-2-carboxamide] | 11 nM |
| Cn1c([C@@H](NC(=O)c2cnc(C(F)F)cn2)C2CC2)nc2cc(F)ccc21 [Example 30, N-[(S)-cyclopropyl (5-fluoro-1-methyl-1H-1,3-benzodiazol-2-yl)methyl]-5-(difluoromethyl)pyrazine-2-carboxamide] | 18 nM |
| Cc1cnc(C(=O)N[C@H](c2nc3cc(C(F)(F)F)ccc3n2C)C2CC2)cn1 [Example 31, N-[(S)-cyclopropyl[1-methyl-5-(trifluoromethyl)-1H-1,3-benzodiazol-2-yl]methyl]-5-methylpyrazine-2-carboxamide] | 6 nM |
| Cc1cnc(C(=O)N[C@H](c2nc3cc(C(F)(F)F)ccc3n2C)[C@]2(O)CCCOC2)cn1 [Example 32, N-[(R)-[(3R)-3-hydroxyoxaN-3-yl][1-methyl-5-(trifluoromethyl)-1H-1,3-benzodiazol-2-yl]methyl]-5-methylpyrazine-2-carboxamide] | 16 nM |
| Cc1cnc(C(=O)N[C@H](c2nc3cc(F)ccc3n2CC(F)F)C(C)C)cn1 [Example 37, N-[(1S)-1-[1-(2,2-difluoroethyl)-5-fluoro-1H-1,3-benzodiazol-2-yl]-2-methylpropyl]-5-methylpyrazine-2-carboxamide] | 9 nM |
| CCn1c([C@@H](NC(=O)c2cnc(C)cn2)C(C)(C)O)nc2cc(F)ccc21 [Example 39, N-[(1R)-1-(1-ethyl-5-fluoro-1H-1,3-benzodiazol-2-yl)-2-hydroxy-2-methylpropyl]-5-methylpyrazine-2-carboxamide] | 28 nM |
| CO[C@H](C)[C@H](NC(=O)c1cnc(C)cn1)c1nc2cc(OC(F)(F)F)ccc2n1C [Example 43, N-[(1R,2R)-2-methoxy-1-[1-methyl-5-(trifluoromethoxy)-1H-1,3-benzodiazol-2-yl]propyl]-5-methylpyrazine-2-carboxamide] | 10 nM |
| Cc1cnc(C(=O)N[C@H](c2nc3c(C)c(C#N)ccc3n2C)C2CC2)cn1 [Example 45, N-[(S)-(5-cyano-1,4-dimethyl-1H-1,3-benzodiazol-2-yl)(cyclopropyl)methyl]-5-methylpyrazine-2-carboxamide] | 26 nM |
| Cc1cnc(C(=O)N[C@H](c2nc3cc(Cl)ccc3n2C)C2CC2)cn1 [Example 47, N-[(S)-(5-chloro-1-methyl-1H-1,3-benzodiazol-2-yl)(cyclopropyl)methyl]-5-methylpyrazine-2-carboxamide] | 9 nM |
| COCCn1c([C@@H](NC(=O)c2cnc(C(F)F)cn2)[C@H]2CCOC2)nc2cc(F)ccc21 [Example 48, 5-(difluoromethyl)-N-[(S)-[5-fluoro-1-(2-methoxyethyl)-1H-1,3-benzodiazol-2-yl][(3R)-oxolaN-3-yl]methyl]pyrazine-2-carboxamide] | 21 nM |
| CCn1c([C@@H](NC(=O)c2cnc(C)cn2)C2CC2)nc2cc(OC(F)F)ccc21 [Example 49, N-[(S)-cyclopropyl[5-(difluoromethoxy)-1-ethyl-1H-1,3-benzodiazol-2-yl]methyl]-5-methylpyrazine-2-carboxamide] | 7 nM |
| CCn1c([C@@H](NC(=O)c2cnc(C)cn2)C(C)(C)O)nc2cc(F)c(F)cc21 [Example 50, N-[(1R)-1-(1-ethyl-5,6-difluoro-1H-1,3-benzodiazol-2-yl)-2-hydroxy-2-methylpropyl]-5-methylpyrazine-2-carboxamide] | 24 nM |
| Cc1cnc(C(=O)N[C@H](c2nc3cc(F)ccc3n2C)C2CC2)cn1 [Example 51, N-[(S)-cyclopropyl(5-fluoro-1-methyl-1H-1,3-benzodiazol-2-yl)methyl]-5-methylpyrazine-2-carboxamide] | 28 nM |

Stronger by IC50, values ahead:

| IC50 | Compound |
| --- | --- |
| 5 nM | Cc1cnc(C(=O)N[C@H](c2nc3cc(F)ccc3n2CC(F)(F)F)C2CC2)cn1 [Example 27, N-[(S)-cyclopropyl[5-fluoro-1-(2,2,2-trifluoroethyl)-1H-1,3-benzodiazol-2-yl]methyl]-5-methylpyrazine-2-carboxamide] |
| 5 nM | Cc1cnc(C(=O)N[C@H](c2nc3cc(Br)ccc3n2C)C2CC2)cn1 [Example 34, N-[(S)-(5-bromo-1-methyl-1H-1,3-benzodiazol-2-yl)(cyclopropyl)methyl]-5-methylpyrazine-2-carboxamide] |
| 5 nM | CCn1c([C@@H](NC(=O)c2cnc(C)cn2)C2CC2)nc2c(C)c(C#N)ccc21 [Example 38, N-[(S)-(5-cyano-1-ethyl-4-methyl-1H-1,3-benzodiazol-2-yl)(cyclopropyl)methyl]-5-methylpyrazine-2-carboxamide] |
| 5 nM | Cc1cnc(C(=O)N[C@H](c2nc3c(C)c(C#N)ccc3n2CC(F)F)C2CC2)cn1 [Example 44, N-[(S)-[5-cyano-1-(2,2-difluoroethyl)-4-methyl-1H-1,3-benzodiazol-2-yl](cyclopropyl)methyl]-5-methylpyrazine-2-carboxamide] |
| 5 nM | Cc1cnc(C(=O)N[C@H](c2nc3cc(Br)c(F)cc3n2C)C2CC2)cn1 [Example 52, N-[(S)-(5-bromo-6-fluoro-1-methyl-1H-1,3-benzodiazol-2-yl) (cyclopropyl)methyl]-5-methylpyrazine-2-carboxamide] |
| 4 nM | CCn1c([C@@H](NC(=O)c2cnc(C(F)F)cn2)C2CC2)nc2c(C)c(C#N)ccc21 [Example 33, N-[(S)-(5-cyano-1-ethyl-4-methyl-1H-1,3-benzodiazol-2-yl)(cyclopropyl)methyl]-5-(difluoromethyl)pyrazine-2-carboxamide] |
| 3 nM | CCn1c([C@@H](NC(=O)c2cnc(C)cn2)C2CC2)nc2cc(C(F)(F)F)ccc21 [Example 36, N-[(S)-cyclopropyl[1-ethyl-5-(trifluoromethyl)-1H-1,3-benzodiazol-2-yl]methyl]-5-methylpyrazine-2-carboxamide] |
| 2 nM | COCCn1c([C@@H](NC(=O)c2cnc(C)cn2)C2CC2)nc2cc(C(F)(F)F)ccc21 [Example 35, N-[(S)-cyclopropyl[1-(2-methoxyethyl)-5-(trifluoromethyl)-1H-1,3-benzodiazol-2-yl]methyl]-5-methylpyrazine-2-carboxamide] |
| 2 nM | COCCn1c([C@@H](NC(=O)c2cnc(C(F)F)cn2)[C@@H]2CCCO2)nc2cc(OC(F)(F)F)ccc21 [Example 40, 5-(difluoromethyl)-N-[(R)-[1-(2-methoxyethyl)-5-(trifluoromethoxy)-1H-1,3-benzodiazol-2-yl][(2S)-oxolan-2-yl]methyl]pyrazine-2-carboxamide] |
| 2 nM | CO[C@H](C)[C@H](NC(=O)c1cnc(C)cn1)c1nc2cc(OC(F)(F)F)ccc2n1CCOC(C)C [Example 41, N-[(1R,2R)-2-methoxy-1-{1-[2-(propan-2-yloxy)ethyl]-5-(trifluoromethoxy)-1H-1,3-benzodiazol-2-yl}propyl]-5-methylpyrazine-2-carboxamide] |
| 2 nM | Cc1cnc(C(=O)N[C@H](c2nc3c(Cl)c(Br)ccc3n2C)C2CC2)cn1 [Example 42, N-[(S)-(5-bromo-4-chloro-1-methyl-1H-1,3-benzodiazol-2-yl)(cyclopropyl)methyl]-5-methylpyrazine-2-carboxamide] |
| 2 nM | CCn1c([C@@H](NC(=O)c2cnc(C)cn2)C2CC2)nc2cc(OC(F)(F)F)ccc21 [Example 46, N-[(S)-cyclopropyl[1-ethyl-5-(trifluoromethoxy)-1H-1,3-benzodiazol-2-yl]methyl]-5-methylpyrazine-2-carboxamide] |
